According to US7528138B2, “Pyrazolo[1,5-a]pyrimidines useful as inhibitors of protein kinases” (Vertex Pharmaceuticals Incorporated, priority 2004, dated 2009):

Biological target: Aurora-B (Homo sapiens, UniProt Q96GD4)
Assay: Aurora B (Aurora-1) Inhibition Assay, 33P incorporation
Format: biochemical
Conditions: enzyme inhibition data (Ki), Table 11; read-out: AurB Ki
Procedure: An assay buffer solution is prepared which consists of 25 mM HEPES (pH 7.5), 10 mM MgCl2, 0.1% BSA and 10% glycerol. A 22 nM Aurora-B solution, also containing 1.7 mM DTT and 1.5 mM Kemptide (LRRASLG), is prepared in assay buffer. To 22 μL of the Aurora-B solution, in a 96-well plate, is added 2 μl of a compound stock solution in DMSO and the mixture is allowed to equilibrate for 10 minutes at 25° C. The enzyme reaction is initiated by the addition of 16 μl stock [γ-^33P]-ATP solution (˜20 nCi/μL) prepared in assay buffer, to a final assay concentration of 800 μM. The reaction is stopped after 3 hours by the addition of 16 μL 500 mM phosphoric acid and the levels of ^33P incorporation into the peptide substrate is determined by the following method.
A phosphocellulose 96-well plate (Millipore, Cat no. MAPHNOB50) is pre-treated with 100 μL of a 100 mM phosphoric acid prior to the addition of the enzyme reaction mixture (40 μL). The solution is left to soak on to the phosphocellulose membrane for 30 minutes and the plate subsequently is washed four times with 200 μL of a 100 mM phosphoric acid. To each well of the dry plate is added 30 μL of Optiphase ‘SuperMix’ liquid scintillation cocktail (Perkin Elmer) prior to scintillation counting (1450 Microbeta Liquid Scintillation Counter, Wallac). Levels of non-enzyme catalysed background radioactivity are determined by adding 16 μL of the 500 mM phosphoric acid to control wells, containing all assay components (which acts to denature the enzyme), prior to the addition of the [γ-^33P]-ATP solution. Levels of enzyme catalysed ^33P incorporation are calculated by subtracting mean background counts from those measured at each inhibitor concentration. For each Ki determination 8 data points, typically covering the concentration range 0-10 μM compound, are obtained in duplicate (DMSO stocks are prepared from an initial compound stock of 10 mM with subsequent 1:2.5 serial dilutions). Ki values are calculated from initial rate data by non-linear regression using the Prism software package (Prism 3.0, Graphpad Software, San Diego, Calif.).

Chain of Aurora-B (Q96GD4 whole entry): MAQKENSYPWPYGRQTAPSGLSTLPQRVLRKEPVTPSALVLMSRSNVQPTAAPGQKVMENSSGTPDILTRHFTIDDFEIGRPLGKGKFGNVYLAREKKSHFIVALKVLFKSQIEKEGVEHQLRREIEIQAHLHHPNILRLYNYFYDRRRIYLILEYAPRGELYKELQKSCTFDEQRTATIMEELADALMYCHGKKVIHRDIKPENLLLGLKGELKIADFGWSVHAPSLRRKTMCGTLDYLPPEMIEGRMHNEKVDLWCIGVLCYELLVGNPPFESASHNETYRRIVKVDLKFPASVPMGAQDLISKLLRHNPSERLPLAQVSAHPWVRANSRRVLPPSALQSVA

Row | Ki | SMILES
1 | 500 to 5000 nM | Cc1cnc2c(-c3cc(NC(C)C)ncn3)c(N)nn2c1 [Compound V-273]
2 | 500 to 5000 nM | COc1ccccc1Nc1cc(-c2c(N)nn3cc(C)cnc23)ncn1 [Compound V-274]
